Experimental findings from patent US8383660B2, “Dibenzyl amine compounds and derivatives” (Pfizer Inc., priority 2006, dated 2013) are described below.

The melting point is the temperature of the solid-liquid transition.

Structures can show the parent of a compound that is named as a salt.

On to `CCOCC1(F)CCN([C@@H](c2ccc(C(F)(F)F)cc2CN(Cc2cc(C(F)(F)F)cc(C(F)(F)F)c2)c2nnn(C)n2)C(C)C)CC1` (as salt: mesylate) [Example 213, (N-[3,5-bis(trifluoromethyl)benzyl]-N-[2-{(1R)-1-[4-(ethoxymethyl)-4-fluoropiperidin-1-yl]-2-methylpropyl}-5-(trifluoromethyl)benzyl]-2-methyl-2H-tetrazol-5-amine)], for which the melting point was determined as 95 °C.
